Data published in patent US6545155B2, “Fused heteroaromatic glucokinase activators” (Hoffmann-La Roche Inc., priority 2000, dated 2003).

system: C57BL/6J mice; assay: Glucokinase activator in vivo screen protocol (blood glucose after oral dosing); details: administered orally, 50 mg/kg, C57BL/6J mice fasted two hours, blood glucose vs vehicle over six hours post dose
Protocol: (Glucokinase Activator in Vivo Screen Protocol
C57BL/6J mice are orally dosed via gavage with Glucokinase (GK) activator at 50 mg/kg body weight following a two hour fasting period. Blood glucose determinations are made five times during the six hour post-dose study period.
Mice (n=6) are weighed and fasted for a two hour period prior to oral treatment. GK activators are formulated at 6.76 mg/ml in Gelucire vehicle (Ethanol:Gelucire44/14:PEG400q.s. 4:66:30 v/w/v. Mice are dosed orally with 7.5 μL formulation per gram of body weight to equal a 50 mg/kg dose. Immediately prior to dosing, a pre dose (time zero) blood glucose reading is acquired by snipping off a small portion of the animals tail (˜1 mm) and collecting 15 μL blood into a heparinized capillary tube for analysis. Following GK activator administration, additional blood glucose readings are taken at 1, 2, 4, and 6 hours post dose from the same tail wound. Results are interpreted by comparing the mean blood glucose values of six vehicle treated mice with six GK activator treated mice over the six hour study duration.

| Structure (SMILES) | glucokinase activator in vivo activity |
| --- | --- |
| CS(=O)(=O)c1ccc([C@@H](CC2CCCC2)C(=O)Nc2nc3ccccc3s2)cc1Cl [Example 19, N-Benzothiazol-2-yl-2(R)-(3-chloro-4-methanesulfonyl-phenyl)-3-cyclopentyl-propionamide] | excellent glucokinase activator in vivo activity |
| CS(=O)(=O)c1ccc(C(CC2CCCC2)C(=O)Nc2ccc3ccccc3n2)cc1Cl (stereo not drawn) [Example 22, 2-(3-Chloro-4-methanesulfonyl-phenyl)-3-cyclopentyl-N-quinolin-2-yl-propionamide] | excellent glucokinase activator in vivo activity |
| CS(=O)(=O)c1ccc(C(CC2CCCC2)C(=O)Nc2nc3ccccc3[nH]2)cc1Cl (stereo not drawn) [Example 20, N-(1H-Benzoimidazol-2-yl)-2-(3-chloro-4-methanesulfonyl-phenyl)-3-cyclopentyl-propionamide] | excellent glucokinase activator in vivo activity |
